Test results from patent publication US9464084B2, “P2X7 modulators” (Janssen Pharmaceutica NV, priority 2013, dated 2016).

Columns and labels:
[1] = target: P2X7 (Homo sapiens (Human), UniProt Q99572); assay: P2X7 antagonism in human PBMCs (LPS + Bz-ATP induced IL-1β release, ELISA); assay type: cell-based; details: LPS 30 ng/ml, Bz-ATP 0.5 mM; for PBMC 10 μM (% control): compound 10 μM; for PBMC 1 μM (% control): compound 1 μM;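 as to all read-outs here: PBMCs from donor human blood, with a further 1.5 h incubation of the cells in the assay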
[2] = target: rat P2X7 (Rattus norvegicus (Rat), UniProt Q64663); assay: Ca2+ flux (FLIPR) in 1321N1 cells expressing recombinant rat P2X7 channel; assay type: cell-based; details: 250 μM BzATP;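 also: Calcium-4 dye fluorescence change read 180 s after agonist addition, following 30 min cell preincubation with test compound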
rat P2X7, sequence (Q64663 whole entry): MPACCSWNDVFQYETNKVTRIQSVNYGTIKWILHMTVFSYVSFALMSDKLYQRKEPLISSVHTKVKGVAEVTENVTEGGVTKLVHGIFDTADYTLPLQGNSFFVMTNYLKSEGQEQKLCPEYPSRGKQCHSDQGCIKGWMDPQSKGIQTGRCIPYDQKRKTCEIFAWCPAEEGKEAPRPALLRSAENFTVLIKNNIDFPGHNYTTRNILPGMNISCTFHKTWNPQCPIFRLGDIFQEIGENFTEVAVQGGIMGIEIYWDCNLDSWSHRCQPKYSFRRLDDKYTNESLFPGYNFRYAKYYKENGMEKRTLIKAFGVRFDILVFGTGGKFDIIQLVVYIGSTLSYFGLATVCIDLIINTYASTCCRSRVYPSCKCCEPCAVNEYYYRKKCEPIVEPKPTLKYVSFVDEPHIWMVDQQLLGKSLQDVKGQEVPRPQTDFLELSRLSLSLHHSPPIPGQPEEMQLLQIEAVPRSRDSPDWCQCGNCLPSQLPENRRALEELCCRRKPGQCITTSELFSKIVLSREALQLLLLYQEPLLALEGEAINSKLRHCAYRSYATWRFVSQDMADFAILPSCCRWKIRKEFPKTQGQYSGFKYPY

P2X7, sequence (Q99572 whole entry): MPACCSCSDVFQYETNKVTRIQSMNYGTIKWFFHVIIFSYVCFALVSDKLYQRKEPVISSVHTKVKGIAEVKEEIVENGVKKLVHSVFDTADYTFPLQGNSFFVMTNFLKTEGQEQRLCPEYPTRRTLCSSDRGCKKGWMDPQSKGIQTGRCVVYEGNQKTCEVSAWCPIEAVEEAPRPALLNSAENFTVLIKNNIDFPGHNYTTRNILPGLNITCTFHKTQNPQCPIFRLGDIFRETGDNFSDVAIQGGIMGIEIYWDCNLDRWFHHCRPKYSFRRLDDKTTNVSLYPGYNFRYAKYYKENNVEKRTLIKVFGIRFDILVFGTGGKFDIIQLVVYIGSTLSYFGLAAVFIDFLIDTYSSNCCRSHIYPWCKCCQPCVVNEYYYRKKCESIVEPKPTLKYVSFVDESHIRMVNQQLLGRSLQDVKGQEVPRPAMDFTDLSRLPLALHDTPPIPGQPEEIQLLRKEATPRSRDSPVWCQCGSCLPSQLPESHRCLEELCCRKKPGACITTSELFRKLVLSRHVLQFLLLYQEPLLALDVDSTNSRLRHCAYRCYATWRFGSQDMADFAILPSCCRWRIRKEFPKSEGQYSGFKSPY

SMILES	PBMC 10 μM (% control) [1] [% control]	IC50 [2] [µM]	PBMC 1 μM (% control) [1] [% control]
C[C@@H]1c2nnn(-c3ccn(CCF)n3)c2CCN1C(=O)c1cccc(C(F)(F)F)c1Cl (single isomer, unassigned) [Example 171, (R*)-(2-Chloro-3-(trifluoromethyl)phenyl)(1-(1-(2-fluoroethyl)-1H-pyrazol-3-yl)-4-methyl-6,7-dihydro-1H-[1,2,3]triazolo[4,5-c]pyridin-5(4H)-yl)methanone]	28.7	> 10	
Cc1cc(C)nc(-n2nnc3c2CCN(C(=O)c2cccc(C(F)(F)F)c2Cl)[C@@H]3C)n1 (single isomer, unassigned) [Example 181, (R*)-(2-chloro-3-(trifluoromethyl)phenyl)(1-(4,6-dimethylpyrimidin-2-yl)-4-methyl-6,7-dihydro-1H-[1,2,3]triazolo[4,5-c]pyridin-5(4H)-yl)methanone]	−0.1	> 10	
C[C@H]1c2ncn(-c3ccccn3)c2CCN1C(=O)c1cccc(Cl)c1Cl (single isomer, unassigned) [Example 191, (S*)-(2,3-Dichlorophenyl)(4-methyl-1-(pyridin-2-yl)-6,7-dihydro-1H-imidazo[4,5-c]pyridin-5(4H)-yl)methanone]	5.2	1.3	
C[C@@H]1c2ncn(-c3ccccn3)c2CCN1C(=O)c1cccc(Cl)c1Cl (single isomer, unassigned) [Example 192, (R*)-(2,3-Dichlorophenyl)(4-methyl-1-(pyridin-2-yl)-6,7-dihydro-1H-imidazo[4,5-c]pyridin-5(4H)-yl)methanone]	−6.3	10	
C[C@@H]1Cc2c(nnn2-c2cc(F)ccn2)CN1C(=O)c1cccc(Cl)c1Cl (single isomer, unassigned) [Example 195, (6R*)-5-[(2,3-Dichlorophenyl)carbonyl]-1-(4-fluoropyridin-2-yl)-6-methyl-4,5,6,7-tetrahydro-1H-[1,2,3]triazolo[4,5-c]pyridine]	14.4	0.0108	
C[C@H]1Cc2c(nnn2-c2cc(F)ccn2)CN1C(=O)c1cccc(Cl)c1Cl (single isomer, unassigned) [Example 196, (6S*)-5-[(2,3-Dichlorophenyl)carbonyl]-1-(4-fluoropyridin-2-yl)-6-methyl-4,5,6,7-tetrahydro-1H-[1,2,3]triazolo[4,5-c]pyridine]	−3.1	2.62	
C[C@@H]1c2n[nH]c(-c3ncc(F)cn3)c2CCN1C(=O)c1cccc(C(F)(F)F)c1Cl (single isomer, unassigned) [Example 223, (R*)-(2-chloro-3-(trifluoromethyl)phenyl)(3-(5-fluoropyrimidin-2-yl)-7-methyl-4,5-dihydro-2H-pyrazolo[3,4-c]pyridin-6(7H)-yl)methanone]	1.8	0.564	
C[C@H]1Cc2c(nnn2-c2ncc(F)cn2)CN1C(=O)c1cc(C(F)(F)F)ccc1F (single isomer, unassigned) [Example 232, (S*)-(2-fluoro-5-(trifluoromethyl)phenyl)(1-(5-fluoropyrimidin-2-yl)-6-methyl-6,7-dihydro-1H-[1,2,3]triazolo[4,5-c]pyridin-5(4H)-yl)methanone]	7.5	> 10	
Cc1ccc(-n2nnc3c2CCN(C(=O)c2cccc(C(F)(F)F)c2Cl)[C@@H]3C)nc1 (single isomer, unassigned) [Example 255, (R*)-(2-chloro-3-(trifluoromethyl)phenyl)(4-methyl-1-(5-methylpyridin-2-yl)-6,7-dihydro-1H-[1,2,3]triazolo[4,5-c]pyridin-5(4H)-yl)methanone]	−5.5	0.211	
CCc1ccnc(-n2nnc3c2CCN(C(=O)c2cccc(C(F)(F)F)c2Cl)[C@@H]3C)n1 (single isomer, unassigned) [Example 294, (R*)-(2-chloro-3-(trifluoromethyl)phenyl)(1-(4-ethylpyrimidin-2-yl)-4-methyl-6,7-dihydro-1H-[1,2,3]triazolo[4,5-c]pyridin-5(4H)-yl)methanone]	−8.1	0.0028	
Cc1nc(-n2nnc3c2CCN(C(=O)c2cccc(C(F)(F)F)c2Cl)[C@@H]3C)ncc1F (single isomer, unassigned) [Example 305, (R*)-(2-chloro-3-(trifluoromethyl)phenyl)(1-(5-fluoro-4-methylpyrimidin-2-yl)-4-methyl-6,7-dihydro-1H-[1,2,3]triazolo[4,5-c]pyridin-5(4H)-yl)methanone]	0.9	0.0197	
CCOc1cccnc1-n1nnc2c1CCN(C(=O)c1cccc(C(F)(F)F)c1Cl)[C@@H]2C (single isomer, unassigned) [Example 316, (R*)-(2-chloro-3-(trifluoromethyl)phenyl)(1-(3-ethoxypyridin-2-yl)-4-methyl-6,7-dihydro-1H-[1,2,3]triazolo[4,5-c]pyridin-5(4H)-yl)methanone]	−9.6	2.21	
CCOc1cccnc1-n1nnc2c1CCN(C(=O)c1cccc(C(F)(F)F)c1Cl)[C@H]2C (single isomer, unassigned) [Example 317, (S*)-(2-chloro-3-(trifluoromethyl)phenyl)(1-(3-ethoxypyridin-2-yl)-4-methyl-6,7-dihydro-1H-[1,2,3]triazolo[4,5-c]pyridin-5(4H)-yl)methanone]	4.8	> 10	
CC1c2ncn(-c3cnccn3)c2CCN1C(=O)c1cccc(C(F)(F)F)c1F (stereo not shown) [Example 14, (2-Fluoro-3-(trifluoromethyl)phenyl)(4-methyl-1-(pyrazin-2-yl)-6,7-dihydro-1H-imidazo[4,5-c]pyridin-5(4H)-yl)methanone]		0.141	12.8
CC1c2ncn(-c3ncccn3)c2CCN1C(=O)c1cccc(C(F)(F)F)c1Cl (stereo not shown) [Example 23, (2-Chloro-3-(trifluoromethyl)phenyl)(4-methyl-1-(pyrimidin-2-yl)-6,7-dihydro-1H-imidazo[4,5-c]pyridin-5(4H)-yl)methanone]	6.4	0.0906	
CCOC(=O)C1c2ncn(-c3ccccc3)c2CCN1C(=O)c1cccc(Cl)c1Cl (stereo not shown) [Example 27, Ethyl 5-(2,3-dichlorobenzoyl)-1-phenyl-4,5,6,7-tetrahydro-1H-imidazo[4,5-c]pyridine-4-carboxylate]		1.89	39.2
C[C@@H]1Cc2c(nnn2-c2ccn[nH]2)[C@H](C)N1C(=O)c1cccc(C(F)(F)F)c1Cl [Example 309, (2-chloro-3-(trifluoromethyl)phenyl)((4S,6R)-4,6-dimethyl-1-(1H-pyrazol-5-yl)-6,7-dihydro-1H-[1,2,3]triazolo[4,5-c]pyridin-5(4H)-yl)methanone]	1.4		
C[C@@H]1c2nnn(-c3ccn[nH]3)c2C[C@H](C)N1C(=O)c1cccc(C(F)(F)F)c1Cl [Example 310, (2-chloro-3-(trifluoromethyl)phenyl)((4R,6S)-4,6-dimethyl-1-(1H-pyrazol-5-yl)-6,7-dihydro-1H-[1,2,3]triazolo[4,5-c]pyridin-5(4H)-yl)methanone]	12.2		
CC1Cc2c(nnn2-c2ncc(F)cn2)CN1C(=O)c1cccc(C(F)(F)F)c1F (stereo not shown) [Example 311, (2-fluoro-3-(trifluoromethyl)phenyl)(1-(5-fluoropyrimidin-2-yl)-6-methyl-6,7-dihydro-1H-[1,2,3]triazolo[4,5-c]pyridin-5(4H)-yl)methanone]	63.6		
O=C(c1cccc(C(F)(F)F)c1Cl)N1CCc2c(ncn2-c2ccc(F)cn2)C1 [Example 315, (2-chloro-3-(trifluoromethyl)phenyl)(1-(5-fluoropyridin-2-yl)-6,7-dihydro-1H-imidazo[4,5-c]pyridin-5(4H)-yl)methanone]	8.8		
C[C@H]1Cc2c(nnn2-c2ccn[nH]2)[C@H](C)N1C(=O)c1cccc(C(F)(F)F)c1Cl [Example 319, (2-chloro-3-(trifluoromethyl)phenyl)((4S,6S)-4,6-dimethyl-1-(1H-pyrazol-5-yl)-6,7-dihydro-1H-[1,2,3]triazolo[4,5-c]pyridin-5(4H)-yl)methanone]	−6.8		
C[C@@H]1Cc2c(nnn2-c2ccn[nH]2)[C@@H](C)N1C(=O)c1cccc(C(F)(F)F)c1Cl [Example 320, (2-chloro-3-(trifluoromethyl)phenyl)((4R,6R)-4,6-dimethyl-1-(1H-pyrazol-5-yl)-6,7-dihydro-1H-[1,2,3]triazolo[4,5-c]pyridin-5(4H)-yl)methanone]	−19.7		
O=C(c1cccnc1C(F)(F)F)N1CCc2c(-c3ccccc3)n[nH]c2C1 [Example 322, (3-phenyl-4,5-dihydro-1H-pyrazolo[3,4-c]pyridin-6(7H)-yl)(2-(trifluoromethyl)pyridin-3-yl)methanone]			100.4
O=C(c1ccc(F)cc1Cl)N1CCc2c(-c3ccccc3)n[nH]c2C1 [Example 323, (2-chloro-4-fluorophenyl)(3-phenyl-4,5-dihydro-1H-pyrazolo[3,4-c]pyridin-6(7H)-yl)methanone]			102.4
O=C(c1c(Cl)cccc1Cl)N1CCc2c(-c3ccccc3)n[nH]c2C1 [Example 324, (2,6-dichlorophenyl)(3-phenyl-4,5-dihydro-1H-pyrazolo[3,4-c]pyridin-6(7H)-yl)methanone]			100.4
O=C(c1c(F)cccc1Cl)N1CCc2c(-c3ccccc3)n[nH]c2C1 [Example 325, (2-chloro-6-fluorophenyl)(3-phenyl-4,5-dihydro-1H-pyrazolo[3,4-c]pyridin-6(7H)-yl)methanone]			99.7
Cn1nc2c(c1-c1ccc(F)cc1)CCN(C(=O)c1cccc(Cl)c1Cl)C2 [Example 326, (2,3-dichlorophenyl)(3-(4-fluorophenyl)-2-methyl-4,5-dihydro-2H-pyrazolo[3,4-c]pyridin-6(7H)-yl)methanone]			92.0
